US7989649B2, “Tumor imaging compounds” (Emory University, priority 2002, dated 2011)

Legend:
[1] = system: human melanoma transplants; conditions: cited from earlier work
[2] = cited from earlier work
9 L gliosarcoma tumor = conditions: same rodent tumor model, 60 minutes; cited from earlier work
[3] = normal Fischer rats, 60 minutes; cited from earlier work
[4] = healthy Copenhagen rats, 60 minutes
[5] = nude Swiss mice bearing human melanoma transplants, 60 minutes

CC(C)(N)C(=O)O [AIB, α-aminoisobutyric acid]
mean RC in pancreas and kidneys ([1]; mice, within 5-15 minutes post-injection): greater than 1.8
mean RC in pancreas and kidneys ([2]; rats, within 5-15 minutes post-injection): greater than 1.8

CN1C(C)(C(=O)OC(C)(C)C)COS1(=O)=O (stereo not drawn) [Compound 14b, 3,4-dimethyl-1,2,3-oxathiazolidine-4-carboxylic acid tert-butyl ester 2,2-dioxide]
melting point: 54 to 55 °C

CC([11CH3])(N)C(=O)O (stereo not drawn) [[^11C]AIB, [^11C]α-aminoisobutyric acid]
mean relative concentration (mean RC), brain [2, 4]: 0.2
mean relative concentration (mean RC), kidneys [2, 4]: 10.3
mean relative concentration (mean RC), pancreas [2, 4]: 6.0

CC(C)(N)C(=O)O [[^14C]AIB]
mean RC, brain [1, 5]: 0.23
mean RC, kidneys [1, 5]: 3.4
mean RC, pancreas [1, 5]: 8.6

OC[C@H]1OC(O)[C@H]([18F])[C@@H](O)[C@@H]1O (stereo partly drawn) [[^18F]FDG, 2-[^18F]fluorodeoxyglucose]
uptake in normal brain (9 L gliosarcoma tumor): 1.30 % ID/g
uptake in tumor tissue (9 L gliosarcoma tumor): 1.05 % ID/g

N[C@]1(C(=O)O)C[C@@H](F)C1 [trans-[^18F]FACBC, trans-1-amino-3-[^18F]fluorocyclobutyl-1-carboxylic acid]
pancreatic uptake [3]: 3.4 % ID/g
